In patent US10080751B2, “Systems and methods for treating bacterial infection” (priority 2016, dated 2018):
Values after ≈ are worked out from the molar mass of the structure shown. Counter-ions that a name gives are not always drawn. Like-named read-outs stand apart in the source and are kept apart here.

Assays:
[1] = both, rat, in vivo, iv, 4 weeks
Experimental: A repeated-dose, 4-week toxicity study was conducted in male and female rats, where single, daily IV bolus doses up to 60 mg/kg were given. […] A 28-day toxicity study was also conducted in male and female marmosets, where iclaprim mesylate was infused intravenously over a 20-minute interval.

M. catarrhalis = experiment: MIC with/without bovine pulmonary surfactant, M. catarrhalis; type: cell-based, Moraxella catarrhalis; settings: for MICRZ, Resazurin: +BPS: 2.5% v/v BPS
Experimental: (§1) Clinical isolates were identified by the submitting laboratories and confirmed by JMI Laboratories using standard bacteriologic algorithms and methodologies, including Matrix-Assisted Laser Desorption Ionization-Time Of Flight Mass Spectrometry (MALDI-TOF MS). When necessary, MALDI-TOF MS was performed using the Bruker Daltonics MALDI Biotyper (Billerica, Mass., USA), following manufacturer's instructions. Isolates selected were bacterial species commonly associated with pneumonia. […] 2.2 Susceptibility testing
(§2) Antibacterial susceptibility testing was measured by JMI Labs (North Liberty, Iowa, USA). […] These clinical isolates were collected from US (n=4), Mexico (n=2), and Italy (n=1). Susceptibility testing was performed by broth microdilution in accordance with the Clinical and Laboratory and Standards Institute (CLSI) guidelines M07-A10 (2015) and the standard operating procedures at JMI laboratories. Minimum inhibitory concentrations (MICs) were based on CLSI criteria (2015). There are no published breakpoints for iclaprim. E. coli, K. pneumoniae, M. catarrhalis, E. faecalis, and S. aureus were tested in cation-adjusted Mueller-Hinton broth (CA-MHB). S. pneumoniae were tested in CA-MHB supplemented with 2.5-5% lysed horse blood, and H. influenza were tested in Haemophilus test medium. Quality control and interpretation of results were performed in accordance with CLSI M100-S26 (2016) methods. QC ranges for iclaprim were those approved by CLSI and published in M100-S26 (2016). Iclaprim and comparator antibiotic MIC results were within the CLSI published ranges against E. coli ATCC 25922, E. faecalis ATCC 29212, E. faecalis ATCC 33186, H. influenzae ATCC 49247, K. pneumoniae ATCC 700603 (ESBL phenotype), S. aureus ATCC 29213, and S. pneumoniae ATCC 49619. Isolates were tested with MIC panels (ThermoFisher Scientific, Cleveland, Ohio, USA) of comparator antibiotics (daptomycin and levofloxacin).
(§3) Because bovine pulmonary surfactant can introduce cloudiness to the MIC testing media, antimicrobial growth inhibition was also evaluated using the colorimetric metabolic indicator resazurin (Camlab Ltd., Cambridge, UK). […] S. pneumoniae panels were omitted from resazurin analysis because the color change was obscured by the lysed horse blood present in the test medium. Growth inhibition was then evaluated as a visible color change from blue (no growth) to pink (robust growth) and recorded as a MICRZ value.
(§4) The MICs of iclaprim, levofloxacin, and daptomycin were determined against Gram-positive and Gram-negative isolates.
(§5) A new vial of bovine pulmonary surfactant (BPS; Survanta®; Abbott Laboratories, Columbus, Ohio) was utilized for each independent experiment. Each vial was mixed thoroughly and a 100 μL aliquot was spread on an agar plate, which was incubated overnight to confirm sterility. […] The concentration of surfactant was expressed in terms of percent volume of Survanta® suspension, which consisted of phospholipid (25 mg/mL) and surfactant proteins (<1 mg/mL) in 0.9% sodium chloride solution (Goerke, 1998). MICs of daptomycin were determined in CAMHB with the Ca^2+ content adjusted to 50 mg/L.

E. faecalis = experiment: MIC with/without bovine pulmonary surfactant, E. faecalis; type: cell-based, Enterococcus faecalis; settings: for MICRZ, Resazurin: +BPS: 2.5% v/v BPS; for MICRZ, Resazurin / MIC: no BPS; for MIC: Enterococcus faecalis, read-out: MIC, CLSI
Experimental: as §1, §2, §3, §4, §5

S. pneumoniae = experiment: MIC with/without bovine pulmonary surfactant, S. pneumoniae; type: cell-based; settings: Streptococcus pneumoniae
Experimental: as §1, §2, §3, §4, §5

S. aureus = experiment: MIC with/without bovine pulmonary surfactant, S. aureus; type: cell-based, Staphylococcus aureus; settings: for MICRZ, Resazurin: +BPS: 2.5% v/v BPS; for MICRZ, Resazurin: no BPS
Experimental: as §1, §2, §3, §4, §5

[2] = test system: common Gram-positive and Gram-negative respiratory bacteria; experiment: Pulmonary surfactant interaction, overall effect on MIC and MICRZ; type: cell-based; settings: respiratory Gram-positive strains and clinical isolates; read-out: MIC and MICRZ in the presence of 2.5% BPS
Experimental: Antibacterial susceptibility testing was measured by JMI Labs (North Liberty, Iowa, USA). […] These clinical isolates were collected from US (n=4), Mexico (n=2), and Italy (n=1). Susceptibility testing was performed by broth microdilution in accordance with the Clinical and Laboratory and Standards Institute (CLSI) guidelines M07-A10 (2015) and the standard operating procedures at JMI laboratories. Minimum inhibitory concentrations (MICs) were based on CLSI criteria (2015). There are no published breakpoints for iclaprim. E. coli, K. pneumoniae, M. catarrhalis, E. faecalis, and S. aureus were tested in cation-adjusted Mueller-Hinton broth (CA-MHB). […]
Because bovine pulmonary surfactant can introduce cloudiness to the MIC testing media, antimicrobial growth inhibition was also evaluated using the colorimetric metabolic indicator resazurin (Camlab Ltd., Cambridge, UK). […] Growth inhibition was then evaluated as a visible color change from blue (no growth) to pink (robust growth) and recorded as a MICRZ value.
as §4
A new vial of bovine pulmonary surfactant (BPS; Survanta®; Abbott Laboratories, Columbus, Ohio) was utilized for each independent experiment. […] MICs of daptomycin were determined in CAMHB with the Ca^2+ content adjusted to 50 mg/L. […]

[3] = S. aureus Clinical Isolate 825189

COc1cc(Cc2cnc(N)nc2N)c2c(c1OC)OC(C1CC1)C=C2 (racemic) [iclaprim mesylate, 5-[(2RS)-2-cyclopropyl-7,8-dimethoxy-2Hchromen-5-ylmethyl] pyrimidine-2,4-diamine methanesulfonate]
dosages with histopathological changes at the injection sites [1]: ≥ 10 mg/kg/day

CCCCCCCCCC(=O)N[C@@H](Cc1c[nH]c2ccccc12)C(=O)N[C@H](CC(N)=O)C(=O)N[C@@H](CC(=O)O)C(=O)N[C@@H]1C(=O)NCC(=O)N[C@@H](CCCN)C(=O)N[C@@H](CC(=O)O)C(=O)N[C@H](C)C(=O)N[C@@H](CC(=O)O)C(=O)NCC(=O)N[C@H](CO)C(=O)N[C@@H]([C@H](C)CC(=O)O)C(=O)N[C@@H](CC(=O)c2ccccc2N)C(=O)O[C@@H]1C [Daptomycin]
MICRZ, Resazurin: +BPS (M. catarrhalis; M. catarrhalis Clinical Isolate 893806): >16 µg/mL | MICRZ, Resazurin (M. catarrhalis; M. catarrhalis Clinical Isolate 893806, no BPS): 8 µg/mL | MICRZ, Resazurin: +BPS (M. catarrhalis; M. catarrhalis Clinical Isolate 893807): >16 µg/mL | MICRZ, Resazurin (M. catarrhalis; M. catarrhalis Clinical Isolate 893807, no BPS): 8 µg/mL | MIC (M. catarrhalis; Moraxella catarrhalis, M. catarrhalis Clinical Isolate 893806, no BPS): 8 µg/mL (≈ 4.94 µM) | MICRZ, Resazurin: +BPS (E. faecalis; E. faecalis ATCC 29212): >16 µg/mL | MICRZ, Resazurin (E. faecalis; E. faecalis ATCC 29212): 2 µg/mL | MICRZ, Resazurin: +BPS (E. faecalis; E. faecalis ATCC 33186): >16 µg/mL | MICRZ, Resazurin (E. faecalis; E. faecalis ATCC 33186): 1 µg/mL | MIC (E. faecalis; ATCC29212, E. faecalis ATCC 29212): 2 µg/mL (≈ 1.23 µM) | MIC (E. faecalis; ATCC33186, E. faecalis ATCC 33186): 1 µg/mL (≈ 0.617 µM) | MIC (S. pneumoniae; ATCC49619, S. pneumoniae ATCC 49619, 2.5% v/v BPS, read-out: MIC, CLSI: +BPS): 16 µg/mL (≈ 9.87 µM) | MIC (S. pneumoniae; ATCC49619, S. pneumoniae ATCC 49619, no BPS, read-out: MIC, CLSI): 0.25 µg/mL (≈ 0.154 µM) | MIC (S. pneumoniae; S. pneumoniae Clinical Isolate 818757, 2.5% v/v BPS, read-out: MIC, CLSI: +BPS): 16 µg/mL (≈ 9.87 µM) | MIC (S. pneumoniae; S. pneumoniae Clinical Isolate 818757, no BPS, read-out: MIC, CLSI): 0.25 µg/mL (≈ 0.154 µM) | MIC (S. pneumoniae; S. pneumoniae Clinical Isolate 825175, 2.5% v/v BPS, read-out: MIC, CLSI: +BPS): 16 µg/mL (≈ 9.87 µM) | MIC (S. pneumoniae; S. pneumoniae Clinical Isolate 825175, no BPS, read-out: MIC, CLSI): 0.25 µg/mL (≈ 0.154 µM) | MICRZ, Resazurin: +BPS (S. aureus; S. aureus ATCC 29213): >16 µg/mL | MICRZ, Resazurin (S. aureus; S. aureus ATCC 29213): 0.5 µg/mL | MICRZ, Resazurin: +BPS (S. aureus; [3]): >16 µg/mL | MICRZ, Resazurin (S. aureus; [3]): 0.25 µg/mL | MIC [2]: > 16 µg/mL
